In publication PMC4956231, “Molecular Mechanisms for Drug Hypersensitivity Induced by the Malaria Parasite’s Chloroquine Resistance Transporter” (PLoS Pathogens, 2016):
Like-named read-outs stand apart in the source and are kept apart here. Marks after values point to notes of the source that are not given here.

Experiments:
[1] = tested on: C=C[C@H]1C[N@@]2CC[C@H]1C[C@@H]2[C@@H](O)c1ccnc2ccc(OC)cc12; assay: cells, lysate or membranes; conditions: other: transport via 76I-PfCRT^K1 in oocytes; CQ pH 6.0, quinine and quinidine pH 5.0; 27.5 °C
[2] = tested on: C=C[C@H]1C[N@@]2CC[C@H]1C[C@H]2[C@H](O)c1ccnc2ccc(OC)cc12; assay: cells, lysate or membranes; conditions: other: transport via 76I-PfCRT^K1 in oocytes; CQ pH 6.0, quinine and quinidine pH 5.0; 27.5 °C
[3] = tested on: parasites carrying isoforms of PfCRT^CQR; conditions: in vitro studies, cited from earlier work
PfCRT^Dd2 [4] = target: PfCRT^Dd2 (Plasmodium falciparum, UniProt Q9N623, A220S/I356T/K76T/M74I/N326S/N75E/Q271E/R371I); type: cell-based; conditions: extracellular concentrations of 1 and 2 mM; pH 5.5; 15 μM unlabeled CQ
Chain of PfCRT^Dd2 (Plasmodium falciparum, UniProt Q9N623, A220S/I356T/K76T/M74I/N326S/N75E/Q271E/R371I) (Q9N623 whole entry M74I/N75E/K76T/A220S/Q271E/N326S/I356T/R371I): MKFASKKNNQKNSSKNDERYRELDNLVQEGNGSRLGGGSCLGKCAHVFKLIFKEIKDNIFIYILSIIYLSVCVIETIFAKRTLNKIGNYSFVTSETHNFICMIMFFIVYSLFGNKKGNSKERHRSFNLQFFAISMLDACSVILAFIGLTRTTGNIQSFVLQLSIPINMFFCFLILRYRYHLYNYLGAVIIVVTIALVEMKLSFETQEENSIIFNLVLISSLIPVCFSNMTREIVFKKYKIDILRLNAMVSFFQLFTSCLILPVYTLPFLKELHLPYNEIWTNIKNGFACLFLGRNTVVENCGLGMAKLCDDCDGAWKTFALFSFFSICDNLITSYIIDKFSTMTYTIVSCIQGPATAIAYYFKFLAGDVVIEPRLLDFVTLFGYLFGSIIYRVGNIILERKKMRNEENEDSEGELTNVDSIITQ
Method: The uptake of [^3H]CQ (0.25 μM) was measured in the absence (solvent control) or presence of the test compounds (extracellular concentrations of 1 and 2 mM). The assays were conducted at pH 5.5 and in the presence of 15 μM unlabeled CQ.

[5] = tested on: noninjected oocytes and oocytes expressing PfCRT variants or PfNT1; assay: Trans-stimulation of [3H]CQ uptake by microinjected compound, all oocyte types; type: cell-based, Plasmodium falciparum; conditions: any of the oocyte types, estimated intracellular concentrations 5 and 10 mM
Method: A subset of experiments measured the ability of unlabeled amantadine to trans-stimulate the uptake of [^3H]CQ into the oocyte. Immediately prior to the commencement of the experiment, the oocytes (days 3–4 post-injection of the cRNA) were microinjected with either amantadine (estimated intracellular concentrations of 1, 2.5, 5, 10, 15, or 20 mM) or a control treatment (buffer, spermine, or histidine; the estimated intracellular concentrations of spermine and histidine were 5 and 10 mM). The volume injected was 50 nL and the intracellular concentrations were calculated using previous estimates of the volume of stage V-VI oocytes (~400 nL [77]). The resealed oocytes were then incubated at 16–18°C in OR^2+ buffer for approximately 5 min and the influx of [^3H]CQ was measured as described above. […] The Michaelis-Menten equation was then fitted to the data to derive the kinetic parameters for the trans-stimulation of [^3H]CQ transport by amantadine.

noninjected oocytes = assay: [3H]drug uptake into noninjected oocytes (background accumulation); type: cell-based, Xenopus laevis; conditions: [3H]drug […]
Method: (§1) For each treatment, 10 oocytes were transferred to a 5 mL polystyrene round bottom tube (Falcon) and washed twice with 3.5 mL of ND96 buffer, with the residual buffer removed by pipette. […] The assay was terminated by removing the reaction buffer with a pipette and washing the oocytes twice with 3.5 mL of ice-cold ND96 buffer. Each oocyte was transferred to a separate well of a white 96-well plate (NUNC or PerkinElmer), incubated overnight at room temperature in 30 μL of 10% SDS, and mixed on an orbital shaker the following day for approximately 5 min. The lysed oocyte was then combined with 150 μL of MicroScint-40 microscintillant (PerkinElmer), the plate covered with a TopSeal-A (PerkinElmer), and the radioactivity measured with a PerkinElmer MicroBeta^2 microplate liquid scintillation analyzer.

76I-PfCRT^K1 [6] = target: T1, 76I-PfCRT^K1 (Plasmodium falciparum, UniProt Q9N623, A220S/K76I/M74I/N326S/N75E/Q271E/R371I); type: cell-based; conditions: for Apparent Vmax: transport via 76I-PfCRT^K1 in oocytes, CQ pH 6.0, quinine and quinidine pH 5.0
T1 sequence (Q9N623 whole entry A220S/K76I/M74I/N326S/N75E/Q271E/R371I): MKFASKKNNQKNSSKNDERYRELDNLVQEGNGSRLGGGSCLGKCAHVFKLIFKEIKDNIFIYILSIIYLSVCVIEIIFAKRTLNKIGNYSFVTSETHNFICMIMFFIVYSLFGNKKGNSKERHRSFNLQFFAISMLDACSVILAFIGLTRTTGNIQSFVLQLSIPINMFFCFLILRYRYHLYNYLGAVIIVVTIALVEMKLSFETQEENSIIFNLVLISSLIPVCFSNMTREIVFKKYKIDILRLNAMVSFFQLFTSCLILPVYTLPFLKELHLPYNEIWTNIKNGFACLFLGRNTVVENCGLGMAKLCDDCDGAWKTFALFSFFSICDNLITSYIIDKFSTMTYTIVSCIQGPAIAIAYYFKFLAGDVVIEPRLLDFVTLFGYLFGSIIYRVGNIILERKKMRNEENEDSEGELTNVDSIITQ
Method: as §1

76N-PfCRT^K1 = assay: [3H]drug transport into Xenopus oocytes expressing PfCRT; type: cell-based, Plasmodium falciparum; conditions: transport via 76N-PfCRT^K1 in oocytes, CQ pH 6.0, quinine and quinidine pH 5.0; for Km: read-out: Apparent Km
Method: as §1
Note that noninjected oocytes and oocytes expressing PfCRT^3D7 take up [^3H]CQ to similar (low) levels via simple diffusion of the neutral species of the drug; this represents the ‘background’ level of [^3H]CQ accumulation in oocytes (refer to Martin et al. for full data and discussion).

PfCRT^K1 [7] = assay: as above; type: cell-based, Plasmodium falciparum; conditions: for rate of uptake mediated by PfCRT^K1, greater than that measured for PfCRT^Dd2: S4 Fig; for rate of uptake: oocytes expressing PfCRT^K1, [3H]drug […], pH 5.0, 1 μM unlabeled drug (Fig 2B, C); for rate of transport, times lower than that measured for CQ: total drug 1.25 μM vs ~12-fold higher total CQ
Method: as §1

PfCRT^Dd2 [8] = assay: as above; type: cell-based, Plasmodium falciparum; conditions: oocytes expressing PfCRT^Dd2; [3H]drug […], pH 5.0, 1 μM unlabeled drug (S4 Fig)
Method: as §1

76I,369F-PfCRT^K1 = 76I,369F-PfCRT^K1 (Plasmodium falciparum, UniProt Q9N623, A220S/K76I/M74I/N326S/N75E/Q271E/R371I/V369F); assay: Inhibition of [3H]amantadine transport in oocytes; type: cell-based; conditions: via 76I,369F-PfCRT^K1 in oocytes
Chain of 76I,369F-PfCRT^K1 (Q9N623 whole entry A220S/K76I/M74I/N326S/N75E/Q271E/R371I/V369F): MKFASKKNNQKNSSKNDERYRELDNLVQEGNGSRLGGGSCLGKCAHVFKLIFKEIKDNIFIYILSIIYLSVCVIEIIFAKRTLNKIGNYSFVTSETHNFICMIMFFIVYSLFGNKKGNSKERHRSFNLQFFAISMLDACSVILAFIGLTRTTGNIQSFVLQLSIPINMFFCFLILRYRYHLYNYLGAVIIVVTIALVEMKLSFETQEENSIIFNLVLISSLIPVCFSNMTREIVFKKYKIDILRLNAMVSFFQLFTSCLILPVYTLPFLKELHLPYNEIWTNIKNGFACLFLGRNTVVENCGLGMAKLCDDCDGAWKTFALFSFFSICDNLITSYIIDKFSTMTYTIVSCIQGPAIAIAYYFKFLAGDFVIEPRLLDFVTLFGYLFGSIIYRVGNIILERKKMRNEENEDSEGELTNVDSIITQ
Method: as §1

76I-PfCRT^K1 [9] = target: T1, 76I-PfCRT^K1; assay: Inhibition of [3H]amantadine transport in oocytes; type: cell-based; conditions: via 76I-PfCRT^K1 in oocytes
Method: as §1

PfCRT^CQR = conditions: oocyte system, inhibitor of PfCRT^CQR; cited from earlier work
PfCRT^K1 [10] = assay: Inhibition of [3H]amantadine transport in oocytes; type: cell-based, Plasmodium falciparum; conditions: via PfCRT^K1 in oocytes
Method: as §1

[11] = artemisinin and/or dihydroartemisinin
[12] = pH 5.0, 1 μM unlabeled drug (Fig 2B, C)
[13] = pH 5.0, 1 μM unlabeled drug (S4 Fig)
[14] = transport via PfCRT^K1 in oocytes, CQ pH 6.0, quinine and quinidine pH 5.0

Molecule: 76I-PfCRT^K1 (Plasmodium falciparum; A220S/K76I/M74I/N326S/N75E/Q271E/R371I)
- Km [1]: 24.1 ± 3.0^f (6) μM
- Km [2]: 0.42 ± 0.04^c,f (4) μM

Molecule: C[C@@H]1CC[C@H]2[C@@H](C)C(=O)O[C@@H]3O[C@@]4(C)CC[C@@H]1[C@]32OO4 [artemisinin]
- decrease in the IC50 induced by isoforms of PfCRT^CQR (hypersensitivity) [3, 11]: 1.9–3.7 fold

Molecule: C[C@H]1[C@@H](O)O[C@@H]2O[C@@]3(C)CC[C@H]4[C@H](C)CC[C@@H]1[C@@]24OO3 [dihydroartemisinin]
- decrease in the IC50 induced by isoforms of PfCRT^CQR (hypersensitivity) [3, 11]: 1.9–3.7 fold

Molecule: N[C@@H](Cc1c[nH]cn1)C(=O)O [histidine]
- effect on accumulation of [3H]CQ in oocytes expressing PfCRT (PfCRT^Dd2 [4]): do not inhibit
- effect on [3H]CQ uptake (trans-stimulation) [5]: neither spermine nor histidine altered

Molecule: CCCCN(CCCC)CC(O)c1cc(Cl)cc2c1-c1ccc(Cl)cc1/C2=C/c1ccc(Cl)cc1 (centres unmarked) [lumefantrine]
- decrease in the IC50 induced by isoforms of PfCRT^CQR (hypersensitivity) [3]: 1.5–3.2 fold

Molecule: C=C[C@H]1C[N@@]2CC[C@H]1C[C@@H]2[C@@H](O)c1ccnc2ccc(OC)cc12 [quinidine]
- rate of uptake (noninjected oocytes; [12]): 0.063 ± 0.010 pmol per oocyte/h
- rate of uptake (noninjected oocytes; [13]): 0.05 ± 0.01 pmol per oocyte/h
- Apparent Vmax (76I-PfCRT^K1 [6]): 7.2 ± 0.5^e,g (6) pmol per oocyte/h
- Apparent Vmax (76N-PfCRT^K1): 14.1 ± 0.9^e,g (6) pmol per oocyte/h
- Km (76N-PfCRT^K1): 94 ± 4 µM
- rate of uptake mediated by PfCRT^K1, greater than that measured for PfCRT^Dd2 (PfCRT^K1 [7]): 17–35%
- rate of uptake (PfCRT^K1 [7]): 0.38 ± 0.08 pmol per oocyte/h
- rate of transport, times lower than that measured for CQ (PfCRT^K1 [7]): 10–15 times
- Apparent Vmax (PfCRT^K1 [7]; [14]): 24.4 ± 1.6 (7) pmol per oocyte/h
- Km (PfCRT^K1 [7]; transport via PfCRT^K1 in oocytes, CQ pH 6.0, quinine and quinidine pH 5.0, 76K-PfCRT^K1 control subtracted, read-out: Apparent Km): 84 ± 1 µM
- rate of uptake (PfCRT^Dd2 [8]): 0.30 ± 0.07 pmol per oocyte/h

Molecule: C=C[C@H]1C[N@@]2CC[C@H]1C[C@H]2[C@H](O)c1ccnc2ccc(OC)cc12 [quinine]
- rate of uptake (noninjected oocytes; [12]): 0.10 ± 0.01 pmol per oocyte/h
- rate of uptake (noninjected oocytes; [13]): 0.10 ± 0.01 pmol per oocyte/h
- Vmax of 76I-PfCRT^K1, times lower than the value obtained for PfCRT^K1 (76I-PfCRT^K1 [6]; quinine transport): ~ 115 times
- Apparent Vmax (76I-PfCRT^K1 [6]): 0.09 ± 0.01^c,f (4) pmol per oocyte/h
- Apparent Vmax (76N-PfCRT^K1): 13.0 ± 1.0^d,f (6) pmol per oocyte/h
- Km (76N-PfCRT^K1): 41 ± 2.6 µM
- rate of uptake mediated by PfCRT^K1, greater than that measured for PfCRT^Dd2 (PfCRT^K1 [7]): 17–35%
- rate of uptake (PfCRT^K1 [7]): 0.55 ± 0.03 pmol per oocyte/h
- rate of transport, times lower than that measured for CQ (PfCRT^K1 [7]): 10–15 times
- Apparent Vmax (PfCRT^K1 [7]; [14]): 10.3 ± 0.8 (7) pmol per oocyte/h
- rate of uptake (PfCRT^Dd2 [8]): 0.44 ± 0.04 pmol per oocyte/h

Molecule: CC(C)(C)NC(=O)[C@@H]1C[C@@H]2CCCC[C@@H]2CN1C[C@@H](O)[C@H](Cc1ccccc1)NC(=O)[C@H](CC(N)=O)NC(=O)c1ccc2ccccc2n1 [saquinavir]
- effect on [3H]amantadine transport (76I,369F-PfCRT^K1): inhibited
- effect on [3H]amantadine transport (76I-PfCRT^K1 [9]): inhibited
- IC50 (PfCRT^CQR): 13 ± 1 µM
- effect on [3H]amantadine transport (PfCRT^K1 [10]): inhibited

Molecule: NCCCNCCCCNCCCN [spermine]
- effect on accumulation of [3H]CQ in oocytes expressing PfCRT (PfCRT^Dd2 [4]): do not inhibit
- effect on [3H]CQ uptake (trans-stimulation) [5]: neither spermine nor histidine altered

Molecule: COc1ccc(CCN(C)CCCC(C#N)(c2ccc(OC)c(OC)c2)C(C)C)cc1OC (centres unmarked) [verapamil]
- effect on [3H]amantadine transport (76I,369F-PfCRT^K1): inhibited
- effect on [3H]amantadine transport (76I-PfCRT^K1 [9]): inhibited
- effect on [3H]amantadine transport (PfCRT^K1 [10]): inhibited
